Test results taken from patent publication US20100099088A1, “RELIABLE DETECTION OF VANCOMYCIN-INTERMEDIATE STAPHYLOCOCCUS AUREUS” (priority 2006, published 2010).
Read-outs that look alike come from different tables or passages of the source.

Tests used:
[1] = system: Staphylococcus aureus hVISA/VISA strains; set-up: key: CG, confluent growth; IC, individual colonies; NG, no growth; details: cited from earlier work
[2] = system: Staphylococcus aureus strains (MRSA, hVISA/VISA, in vitro-selected); assay: CLSI-approved (standard) Etest, vancomycin MIC, 0.5 McFarland inoculum; type: cell-based; details: for MIC: Staphylococcus aureus; for CLSI Etest category: key: S = sensitive; I = intermediate; R = resistant
Experimental: (§1) Vancomycin MICs were determined using standard Etest methods. Briefly, colonies from a fresh overnight plate were resuspended in saline to a turbidity equivalent to 0.5 McFarland units. This suspension was swabbed onto Mueller-Hinton agar plates, allowed to dry, and overlaid with a Vancomycin Etest strip (AB Biodisk). Plates were incubated at 37° C. for 48 h and interpreted. […] For some MRSA strains, the macromethod Etest was also applied, using an inoculum equivalent to 2 McFarland units on Brain-Heart Infusion agar plates.

[3] = system: SAV2095 (SEQ ID NO.:1) expression in S. aureus; assay: SAV2095 homologue mRNA expression by qRT-PCR after growth in subinhibitory vancomycin; type: cell-based, Staphylococcus aureus
Experimental: Overnight cultures of strains were diluted 1/100 in tryptic soy broth containing either 0 (for all strains), 1 (for selected MRSA), or 3 (for selected VISA) mg/L vancomycin and grown to mid-log phase. Cells from 1 mL culture were harvested and treated with RNAProtect (Qiagen). Cells were subsequently treated with lysostaphin for 30 min at 37° C., and total RNA was isolated from each sample and each condition using the RNeasy Kit (Qiagen). Samples were then treated with Turbo DNA-free (Ambion, Austin, Tex.) to remove any contaminating genomic DNA. RNA quantity and quality was assessed using an Agilent Technologies 2100 bioanalyzer and RNA 6000 Nano LabChip kit (Agilent, Mountain View, Calif.). Complementary DNA (cDNA) was generated from 688 ng of total RNA using a random primer hexamer following the protocol for Superscript II (Invitrogen, Carlsbad, Calif.) in a 20 μL volume.
Equal amounts (34 ng) of cDNA were run in triplicate and amplified in a 15 μl reaction containing 7.5 μL of 2× Universal PCR Master Mix (Applied Biosystems, Foster City, Calif.), 10 nM of Z-tailed forward primer, 100 nM of reverse primer, 100 nM of Amplifluor Uniprimer probe (Chemicon, Temecula, Calif.), and 1 μL of DNA target. Moreover, no-template controls were used as recommended. The mixture was incubated at 50° C. for 2 min, at 95° C. for 4 min, and then cycled at 95° C. for 15 sec and at 55° C. for 40 sec 55 times using the Applied Biosystems Prism 7900 Sequence Detector. Amplification efficiencies were validated and normalized to expression of the 16S rRNA gene as a standard, and quantity of target and standard genes were calculated according to a standard curve. Primers were designed using Primer Express 2.0 (Applied Biosystems) and their sequence data are the following: for SAV2095, forward, 5-Ztail-[…]-3, reverse, 5-[…]-3; and for 16S rRNA, forward, 5-Ztail-[…]-3, reverse, 5-GCTTAAGGGTTGCGCTCGT-3. Amplicons were detected using the Amplifluor™ UniPrimerr™ system where forward primers used contained the 5′ Z sequence ACTGAACCTGACCGTACA. As it is appreciated by a person skilled in the art, it is to be understood herein that other primers may be used for amplifying and detecting SAV2095 without departing from the scope of the invention. A person skilled in the art knows how to design primers for any given amplification assay. For example, in a multiplex assay, primers would need to have similar melting temperatures and low complementarity, etc.

[4] = system: Staphylococcus aureus strains (MRSA, hVISA/VISA); details: cited from earlier work; for Modified Etest category: key: S = sensitive; I = intermediate; R = resistant
[5] = system: Staphylococcus aureus strains (MRSA, hVISA/VISA); assay: Modified (macromethod) Etest, vancomycin MIC, 2 McFarland inoculum; type: cell-based; details: for MIC: Staphylococcus aureus; for Modified Etest category: 2 McF inoculum; for Modified Etest category: key: S = sensitive; I = intermediate; R = resistant
Experimental: as §1

[6] = strain 160013 (NRS283), 2 McF inoculum
[7] = strain BR 5 (NRS56), 2 McF inoculum
[8] = strain HIP07930 (NRS22), 2 McF inoculum
[9] = strain HIP09433 (NRS27), 2 McF inoculum
[10] = strain HIP09662 (NRS28), 2 McF inoculum
[11] = strain HIP12864 (NRS402), 2 McF inoculum
[12] = strain LIM 1 (NRS35), 2 McF inoculum
[13] = strain LIM 3 (NRS37), 2 McF inoculum
[14] = strain LY-1999 0620-01 (NRS63), 2 McF inoculum
[15] = strain LY-1999 0620-02 (NRS64), 2 McF inoculum
[16] = strain Mu3 (NRS2), 2 McF inoculum
[17] = strain Mu50 (NRS1), 2 McF inoculum
[18] = strain SA MER (NRS11), 2 McF inoculum
[19] = strain SA MER-S20 (NRS14), 2 McF inoculum

CN[C@H](CC(C)C)C(=O)N[C@H]1C(=O)N[C@@H](CC(N)=O)C(=O)N[C@H]2C(=O)N[C@H]3C(=O)N[C@H](C(=O)N[C@H](C(=O)O)c4cc(O)cc(O)c4-c4cc3ccc4O)[C@H](O)c3ccc(c(Cl)c3)Oc3cc2cc(c3O[C@@H]2O[C@H](CO)[C@@H](O)[C@H](O)[C@H]2O[C@H]2C[C@](C)(N)[C@H](O)[C@H](C)O2)Oc2ccc(cc2Cl)[C@H]1O [vancomycin]
3 µg/mL: MIC ([5]; read-out: Modified Etest MIC, strain CMRSA-2 (MRSA), 2 McF inoculum) | MIC ([5]; read-out: Modified Etest MIC, strain CMRSA-3 (MRSA), 2 McF inoculum)
not in MRSA: Effect on SAV2095 expression level ([3]; MRSA strains grown with subinhibitory vancomycin 1 mg/L, listed as Vn)
CG (24): Agar screen growth ([1]; strain BR 5 (NRS56), 24 h incubation) | Agar screen growth ([1]; strain HIP12864 (NRS402), 24 h incubation) | Agar screen growth ([1]; strain Mu50 (NRS1), 24 h incubation) | Agar screen growth ([1]; strain NRS118, 24 h incubation) | Agar screen growth ([1]; strain SA MER-S20 (NRS14), 24 h incubation)
increased expression of SAV2095: Effect on SAV2095 expression level ([3]; VISA strains grown with subinhibitory vancomycin 3 mg/L, p<0.05, listed as Vn)
8 µg/mL: Modified Etest MIC [4, 6] | Modified Etest MIC [4, 8] | Modified Etest MIC [4, 9] | Modified Etest MIC [4, 10] | Modified Etest MIC [4, 18] | MIC ([5]; read-out: Modified Etest MIC, strain CMRSA-1 (MRSA), 2 McF inoculum)
consistently increased further: Effect on SAV2095 expression level ([3]; VISA strains grown with subinhibitory vancomycin 3 mg/L, p<0.05)
1.5 µg/mL: MIC ([2]; ATCC 29213 / MRSA / VISA, control strain S. aureus ATCC29213, read-out: MIC (standard Etest)) | MIC ([2]; strain CMRSA-1 (MRSA), 0.5 McF inoculum, read-out: CLSI Etest MIC) | MIC ([2]; strain CMRSA-2 (MRSA), 0.5 McF inoculum, read-out: CLSI Etest MIC)
16 µg/mL: MIC ([2]; in vitro strain C1V30 derived from CMRSA-1, read-out: CLSI Etest MIC) | Modified Etest MIC [4, 7] | Modified Etest MIC [4, 14]
1 µg/mL: MIC ([2]; strain CMRSA-4 (MRSA), 0.5 McF inoculum, read-out: CLSI Etest MIC)
R: Modified Etest category [4, 11]
does not consistently increase: Effect on SAV2095 expression level ([3]; MRSA strains grown with subinhibitory vancomycin 1 mg/L)
IC (48): Agar screen growth ([1]; strain 160013 (NRS283), 48 h incubation) | Agar screen growth ([1]; strain HIP07930 (NRS22), 48 h incubation) | Agar screen growth ([1]; strain LY-1999 0620-01 (NRS63), 48 h incubation)
20 µg/mL: MIC ([2]; in vitro strain C3V24 derived from CMRSA-3, read-out: CLSI Etest MIC)
48 µg/mL: Modified Etest MIC [4, 11]
I: CLSI Etest category ([2]; in vitro strain C1V4 derived from CMRSA-1) | CLSI Etest category ([2]; in vitro strain C1V8 derived from CMRSA-1) | CLSI Etest category ([2]; in vitro strain C1V30 derived from CMRSA-1) | CLSI Etest category ([2]; in vitro strain C2V4 derived from CMRSA-2) | CLSI Etest category ([2]; in vitro strain C2V8 derived from CMRSA-2) | CLSI Etest category ([2]; in vitro strain C2V24 derived from CMRSA-2) | CLSI Etest category ([2]; in vitro strain C3V8 derived from CMRSA-3) | CLSI Etest category ([2]; in vitro strain C3V24 derived from CMRSA-3) | CLSI Etest category ([2]; in vitro strain C4V8 derived from CMRSA-4) | CLSI Etest category ([2]; in vitro strain C4V20 derived from CMRSA-4) | Modified Etest category [4, 6] | Modified Etest category [4, 7] | Modified Etest category [4, 8] | Modified Etest category [4, 9] | Modified Etest category [4, 10] | Modified Etest category [4, 13] | Modified Etest category [4, 14] | Modified Etest category [4, 15] | Modified Etest category [4, 16] | Modified Etest category [4, 17] | Modified Etest category ([4]; strain NRS118, 2 McF inoculum) | Modified Etest category [4, 18] | Modified Etest category [4, 19] | Modified Etest category ([5]; strain CMRSA-1 (MRSA))
6 µg/mL: MIC ([2]; in vitro strain C2V4 derived from CMRSA-2, read-out: CLSI Etest MIC) | Modified Etest MIC [4, 13] | Modified Etest MIC [4, 15] | Modified Etest MIC [4, 16]
4 µg/mL: Modified Etest MIC [4, 12]
24 µg/mL: Modified Etest MIC ([4]; strain NRS118, 2 McF inoculum) | Modified Etest MIC [4, 19]
12 µg/mL: Modified Etest MIC [4, 17]
10 µg/mL: MIC ([2]; in vitro strain C1V8 derived from CMRSA-1, read-out: CLSI Etest MIC)
S: CLSI Etest category ([2]; in vitro strain C3V4 derived from CMRSA-3) | CLSI Etest category ([2]; strain CMRSA-1 (MRSA), 0.5 McF inoculum) | CLSI Etest category ([2]; strain CMRSA-2 (MRSA), 0.5 McF inoculum) | CLSI Etest category ([2]; strain CMRSA-3 (MRSA), 0.5 McF inoculum) | CLSI Etest category ([2]; strain CMRSA-4 (MRSA), 0.5 McF inoculum) | Modified Etest category [4, 12] | Modified Etest category ([5]; strain CMRSA-2 (MRSA)) | Modified Etest category ([5]; strain CMRSA-3 (MRSA)) | Modified Etest category ([5]; strain CMRSA-4 (MRSA))
5 µg/mL: MIC ([2]; in vitro strain C4V8 derived from CMRSA-4, read-out: CLSI Etest MIC) | MIC ([2]; read-out: CLSI Etest MIC, in vitro strain C1V4 derived from CMRSA-1)
NG (72): Agar screen growth ([1]; strain HIP09433 (NRS27), 72 h incubation) | Agar screen growth ([1]; strain HIP09662 (NRS28), 72 h incubation) | Agar screen growth ([1]; strain LIM 1 (NRS35), 72 h incubation) | Agar screen growth ([1]; strain LIM 3 (NRS37), 72 h incubation) | Agar screen growth ([1]; strain LY-1999 0620-02 (NRS64), 72 h incubation) | Agar screen growth ([1]; strain Mu3 (NRS2), 72 h incubation) | Agar screen growth ([1]; strain SA MER (NRS11), 72 h incubation)
9 µg/mL: MIC ([2]; in vitro strain C2V8 derived from CMRSA-2, read-out: CLSI Etest MIC)
30 µg/mL: MIC ([2]; in vitro strain C2V24 derived from CMRSA-2, read-out: CLSI Etest MIC)
2 µg/mL: MIC ([5]; read-out: Modified Etest MIC, strain CMRSA-4 (MRSA), 2 McF inoculum)
